One molecule from patent publication US5001223A, “Parathyroid hormone antagonists with enhanced metabolic properties” (Merck & Co., Inc., priority 1989, dated 1991) can be followed below.

This assay deals with T1, parathyroid hormone cell surface receptor (bovine renal cortical plasma membranes) (Bos taurus, UniProt Q1LZF7).
T1 construct: from tissue; host or cells: bovine renal cortex plasma membranes
T1 sequence (Q1LZF7 29-589): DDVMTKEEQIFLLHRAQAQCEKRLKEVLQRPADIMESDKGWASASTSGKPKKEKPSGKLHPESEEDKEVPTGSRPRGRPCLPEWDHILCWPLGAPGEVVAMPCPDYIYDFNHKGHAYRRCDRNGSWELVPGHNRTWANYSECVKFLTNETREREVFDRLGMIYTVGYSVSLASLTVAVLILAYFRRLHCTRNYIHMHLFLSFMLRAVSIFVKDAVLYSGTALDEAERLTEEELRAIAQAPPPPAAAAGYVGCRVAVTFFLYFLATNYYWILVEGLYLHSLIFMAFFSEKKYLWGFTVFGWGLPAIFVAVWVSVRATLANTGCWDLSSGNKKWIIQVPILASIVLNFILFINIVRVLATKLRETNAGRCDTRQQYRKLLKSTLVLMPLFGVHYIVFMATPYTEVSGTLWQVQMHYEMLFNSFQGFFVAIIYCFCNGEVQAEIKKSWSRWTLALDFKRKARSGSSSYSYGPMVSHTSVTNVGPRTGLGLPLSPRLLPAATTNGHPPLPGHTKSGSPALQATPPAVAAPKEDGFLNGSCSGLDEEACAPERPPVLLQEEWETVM
The assay is described as follows: PTH binding assay (receptor assay, radioligand [Nle^8,18,^125 I-Tyr^34 ]bPTH(1-34)NH2). The following applies: radioligand 25,000 cpm, Tris-containing buffer, 30 min. at 21° C. As for the experimental part: PTH analogues were analysed in a new receptor assay which modified the assay reported in Rosenblatt et al., Endocrin. 107: 545-550 (1980). The binding assay used [Nle^8,18,^125 I-Tyr^34 ]bPTH(1-34)NH2which was purified by HPLC (Novapak C18, 32-35% CH3 CN in 0.1% TFA) and was stored as aliquots in 25 mM TrisHCl/1% BSA at -70° C. Bovine renal cortical plasma membranes were incubated with radioligand (25,000 cpm) in a Tris-containing buffer (250 ul) for 30 min. at 21° C. Once equilibrium was reached, bound and free radioligand were separated by centrifugation. High specific binding (85%) to bovine renal cortical membranes was obtained consistently.

Regarding `CN[C@@H](Cc1ccccc1)C(=O)N[C@@H](CCSC)C(=O)N[C@@H](Cc1c[nH]cn1)C(=O)N[C@@H](CC(N)=O)C(=O)N[C@@H](CC(C)C)C(=O)NCC(=O)N[C@@H](CCCCN)C(=O)N[C@@H](Cc1c[nH]cn1)C(=O)N[C@@H](CC(C)C)C(=O)N[C@@H](CO)C(=O)N[C@@H](CO)C(=O)N[C@@H](CCSC)C(=O)N[C@@H](CCC(=O)O)C(=O)N[C@@H](CCCNC(=N)N)C(=O)N[C@H](C(=O)N[C@@H](CCC(=O)O)C(=O)N[C@@H](Cc1c[nH]c2ccccc12)C(=O)N[C@@H](CC(C)C)C(=O)N[C@@H](CCCNC(=N)N)C(=O)N[C@@H](CCCCN)C(=O)N[C@@H](CCCCN)C(=O)N[C@@H](CC(C)C)C(=O)N[C@@H](CCC(N)=O)C(=O)N[C@@H](CC(=O)O)C(=O)N[C@H](C(=O)N[C@@H](Cc1c[nH]cn1)C(=O)N[C@@H](CC(N)=O)C(=O)N[C@@H](Cc1ccc(O)cc1)C(N)=O)C(C)C)C(C)C` [[NMePhe^7,Tyr^34]bPTH(7-34)NH2], the Ki (commonly the dissociation constant of the complex between target and ligand, obtained from inhibition or displacement) is 82 ± 14 nM.
